Assay results from patent publication US11878047B2, “ATF5 peptide variants and uses thereof” (Sapience Therapeutics, Inc., priority 2018, dated 2024).
Read-outs that look alike come from different tables or passages of the source. Ends that are not written are not given here.

Legend:
Format in all cases: cell-based, human
[1] = tested on: neoplastic cells / wide range of tumor cell types; experiment: Cytotoxic activity across tumor cell types
Procedure: ST-13 was further examined in various human cancer cell lines, as was a second retro-inverso variant, ST-14. Suspension cells (HL60, AML14, or SET2) were set at a density of 3.5×10^3 cells/well in 150 μL of RPMI+1.5% fetal bovine serum (FBS) in a tissue culture-treated 96 well dish. ATF5 peptide, reconstituted at a concentration of 10 mg/mL in 20 mM His, pH 7.5, was added to each well at a volume of 50 μL to a final concentration range of 0-80 μM. Cells were incubated with peptide for 48 hours at 37° C. Cell viability was quantified by flow cytometry using an Abcam Annexin V FITC apoptosis detection kit. […] Cells were analyzed by BD Accuri C6 Plus flow cytometer to detect Annexin V-FITC binding (Ex=488 nm; Em=530 nm) using FITC signal detector, and to detect PI staining using the phycoerythrin emission signal detector. Percentage of Annexin V^low and PI^low were quantified and presented as % Viability. EC50 values were calculated using GraphPad Prism v.7 XML. […] Cell viability was determined as described above for suspension cells or by MTT assay (MCF7 cells). Alternatively, cells were gently removed from the cell culture plate following trypsinization with 2.5% trypsin, and cell viability was quantified by flow cytometry using an Abcam Annexin V FITC apoptosis detection kit, as described above.

HL60 cells = experiment: HL60 cell viability (cytotoxicity) assay, Annexin V FITC/PI flow cytometry
Procedure: HL60 PML suspension cells were set at a density of 3.5×10^3 cells/well in 150 μL of RPMI+1.5% fetal bovine serum (FBS) in a 96 well dish. ST-3, reconstituted at a concentration of 10 mg/mL in 20 mM His, pH 7.5, was added to each well at a volume of 50 μL to a final concentration range of 0-80 μM. Cells were incubated with ST-3 for 48 hours at 37° C. Cell viability was quantified by flow cytometry using an Abcam Annexin V FITC apoptosis detection kit. Briefly, cells were washed with PBS and resuspended in 1× assay buffer containing Annexin V FITC and propidium iodide (PI). Annexin V detects apoptotic cells, and PI stains dead cells. After staining, apoptotic cells show green fluorescence, dead cells show red and green fluorescence, and live cells show little or no fluorescence. Cells were selected for analysis based on forward scatter (FSC) vs. side scatter (SSC), and analyzed by BD Accuri C6 Plus flow cytometer to detect Annexin V-FITC binding (Ex=488 nm; Em=530 nm) using FITC signal detector and PI staining by the phycoerythrin emission signal detector. Percentage of Annexin V^low and PI^low were quantified and presented as % Viability.
Lyophilized ST-3 or ST-3 with glycine (ST-4) or alanine (ST-5) substituted for cysteine at amino acid position 21 was freshly reconstituted in histidine buffer to a stock solution of 5 mg/mL and added to cells at a final concentration range of 0-40 μM. Cells were incubated with ATF5 peptide for 48 hours prior to quantification of cell viability.
(§1) ST-13 was further examined in various human cancer cell lines, as was a second retro-inverso variant, ST-14. Suspension cells (HL60, AML14, or SET2) were set at a density of 3.5×10^3 cells/well in 150 μL of RPMI+1.5% fetal bovine serum (FBS) in a tissue culture-treated 96 well dish. ATF5 peptide, reconstituted at a concentration of 10 mg/mL in 20 mM His, pH 7.5, was added to each well at a volume of 50 μL to a final concentration range of 0-80 μM. Cells were incubated with peptide for 48 hours at 37° C. Cell viability was quantified by flow cytometry using an Abcam Annexin V FITC apoptosis detection kit. Briefly, cells were washed with PBS and resuspended in 1× assay buffer containing Annexin V FITC and propidium iodide (PI). Cells were analyzed by BD Accuri C6 Plus flow cytometer to detect Annexin V-FITC binding (Ex=488 nm; Em=530 nm) using FITC signal detector, and to detect PI staining using the phycoerythrin emission signal detector. Percentage of Annexin V^low and PI^low were quantified and presented as % Viability. EC50 values were calculated using GraphPad Prism v.7 XML.

[2] = tested on: AML14 acute myeloid leukemia cells
Procedure: as §1

[3] = tested on: SET2 acute myeloid leukemia cells
Procedure: as §1

MCF7 breast cancer cells = tested on: MCF7 breast cancer cells
Procedure: Additionally, adherent A375, MCF7, U251, DU145, U87, and A549 cells were set at a density of 3.5×10^3 cells/well in 200 μL of media on day −1. On day 0, media was removed and replenished with 150 μL of fresh media, and cells were treated with ATF5 peptide as described. Following a 48-hour incubation at 37° C., floating cells were collected, adherent cells were washed with Dulbecco's Phosphate Buffered Saline (DPBS), dissociated from the dish with 50 μL 2.5% trypsin at RT, and combined with floating cells. Cell viability was determined as described above for suspension cells or by MTT assay (MCF7 cells). Alternatively, cells were gently removed from the cell culture plate following trypsinization with 2.5% trypsin, and cell viability was quantified by flow cytometry using an Abcam Annexin V FITC apoptosis detection kit, as described above.

[4] = HL60 cell viability assay, 48 hours

Compound	cytotoxic activity compared with other peptides (HL60 cells; [4])	other results
CC[C@@H](C)[C@@H](NC(=O)[C@@H](CCCCN)NC(=O)[C@H](NC(=O)[C@@H](Cc1c[nH]c2ccccc12)NC(=O)[C@@H](Cc1ccccc1)NC(=O)[C@@H](CCC(N)=O)NC(=O)[C@@H](CC(N)=O)NC(=O)[C@@H](CCCNC(=N)N)NC(=O)[C@@H](CCCNC(=N)N)NC(=O)[C@@H](CCSC)NC(=O)[C@@H](CCCCN)NC(=O)[C@@H](Cc1c[nH]c2ccccc12)NC(=O)[C@@H](CCCCN)NC(=O)[C@@H](CCCCN)NC(=O)[C@@H](CC(C)C)NC(=O)[C@@H](CCC(=O)O)NC(=O)CNC(=O)[C@@H](CCCNC(=N)N)NC(=O)[C@@H](C)NC(=O)[C@@H](CCC(N)=O)NC(=O)CNC(=O)[C@@H](CC(C)C)NC(=O)[C@@H](CCCNC(=N)N)NC(=O)[C@@H](C)NC(=O)[C@@H](CCC(=O)O)NC(=O)[C@@H](CC(C)C)NC(=O)[C@@H](CCCNC(=N)N)NC(=O)[C@@H](CCC(=O)O)NC(=O)[C@@H](CC(C)C)NC(=O)[C@@H](CCC(=O)O)NC(=O)[C@@H](CCC(=O)O)NC(=O)[C@@H](CCCNC(=N)N)NC(=O)[C@@H](C)NC(=O)[C@@H](CCC(=O)O)NC(=O)[C@@H](C)NC(=O)[C@H](N)C(C)C)[C@H](C)CC)C(=O)N[C@H](CCC(N)=O)C(=O)N[C@H](CCCNC(=N)N)C(=O)O [ST-13]	–	cytotoxic activity in tumor / neoplastic cells [1]: significant cytotoxic activity; cytotoxic activity compared with other peptides (HL60 cells): comparable activity to ST-11, and superior activity to ST-3; EC50 [2]: < 1 µM; EC50 [3]: 17.7 µM; EC50 (MCF7 breast cancer cells): < 1 µM
RQIKIWFQNRRMKWKKLEGEAQGLEARNRELKERAESV [ST-5]	attenuated but not ablated	–
RQIKIWFQNRRMKWKKLEGECQGLEARNRELKERAEAV [ST-6]	comparable activity to ST-3	–
RQIKIWFQNRRMKWKKLEGECQGLEARNRELKERAESV [ST-3, reference compound]	–	cytotoxic activity in tumor / neoplastic cells [1]: induces cell death in neoplastic cells
RQIKIWFQNRRMKWKKLEGEGQGLEARNRELKERAESV [ST-4]	attenuated but not ablated	–
RQIKIWFQNRRMKWKKLEGRAQGLRAELRELEERAEAV [ST-11]	improved cytotoxic activity over ST-3	–
RQIKIWFQNRRMKWKKLEGRCQGLRAELRELEERAEAV [ST-10]	comparable to that of ST-9	–
RQIKIWFQNRRMKWKKLEGRCQGLRAENRELEERAESV [ST-9]	significantly increased over that of ST-3	–
